Data: patent publication US11345681B1, “Inhibitors of fibroblast growth factor receptor kinases” (Kinnate Biopharma Inc., priority 2020, dated 2022)

molecular target: Wild type FGFR2 (Homo sapiens (Human), UniProt P21802); test: FGFR2 kinase assay (fluorescence-based microfluidic mobility shift assay); type: biochemical; settings: not given
Sequence (P21802 22-821): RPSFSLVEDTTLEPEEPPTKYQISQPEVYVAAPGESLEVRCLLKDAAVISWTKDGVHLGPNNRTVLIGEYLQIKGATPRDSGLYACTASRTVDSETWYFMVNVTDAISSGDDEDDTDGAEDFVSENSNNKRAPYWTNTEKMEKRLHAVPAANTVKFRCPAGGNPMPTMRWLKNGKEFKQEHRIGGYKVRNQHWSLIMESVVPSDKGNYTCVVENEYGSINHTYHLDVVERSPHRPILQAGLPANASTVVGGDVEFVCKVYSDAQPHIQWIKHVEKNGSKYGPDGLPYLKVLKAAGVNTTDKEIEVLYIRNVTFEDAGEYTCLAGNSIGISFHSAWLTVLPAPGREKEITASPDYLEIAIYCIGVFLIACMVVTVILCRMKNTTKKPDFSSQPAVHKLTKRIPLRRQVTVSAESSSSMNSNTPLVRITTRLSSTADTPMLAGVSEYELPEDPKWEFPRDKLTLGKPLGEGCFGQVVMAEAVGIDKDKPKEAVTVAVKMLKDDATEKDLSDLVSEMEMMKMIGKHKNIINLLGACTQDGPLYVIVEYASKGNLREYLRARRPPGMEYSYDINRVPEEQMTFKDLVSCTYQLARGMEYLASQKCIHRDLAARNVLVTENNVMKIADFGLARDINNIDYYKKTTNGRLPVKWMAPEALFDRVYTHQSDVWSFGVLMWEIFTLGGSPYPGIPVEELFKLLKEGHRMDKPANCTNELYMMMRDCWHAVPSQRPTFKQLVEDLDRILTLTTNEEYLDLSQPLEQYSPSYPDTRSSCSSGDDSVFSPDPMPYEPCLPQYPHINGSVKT

**Q.** `C#CC(=O)N1C[C@@H](n2nc(C#Cc3cc4ncn(C5CC5)c4cc3F)c(C(N)=O)c2NC)C[C@@H]1CO` [Example 198, 3-[2-(1-Cyclopropyl-6-fluoro-1,3-benzodiazol-5-yl)ethynyl]-1-[(3S,5R)-5-(hydroxymethyl)-1-(prop-2-ynoyl)pyrrolidin-3-yl]-5-(methylamino)pyrazole-4-carboxamide] was tested. Which IC50 did it give?
**A.** The IC50 was less than 100 nM.

same assay, conditions: wild type FGFR2 0.06 nM, 100 μM ATP, 80 minutes at room temperature; class symbols

**Q.** How did the IC50 turn out when `C=CC(=O)N1CC[C@H](n2nc(C#Cc3cc4ncn(C5CC5)c4cc3F)c(C(N)=O)c2N)C1` [Example 168, 5-Amino-3-[2-(1-cyclopropyl-6-fluoro-1,3-benzodiazol-5-yl)ethynyl]-1-[(3S)-1-(prop-2-enoyl)pyrrolidin-3-yl]pyrazole-4-carboxamide] was run?
**A.** The IC50 was no more than 100 nM.

**Q.** For `C=CC(=O)N1C[C@@H](n2nc(C#Cc3cc4ncn(C5CC5)c4cc3F)c(C(N)=O)c2NC)C[C@@H]1C` [Example 169, 1-((3S,5S)-1-Acryloyl-5-methylpynolidin-3-yl)-3-((1-cyclopropyl-6-fluoro-1H-benzo[d]imidazol-5-yl)ethynyl)-5-(methylamino)-1H-pyrazole-4-carboxamide], which IC50 is on record?
**A.** The IC50 was no more than 100 nM.

**Q.** `C=CC(=O)N1C[C@@H](n2nc(C#Cc3cc4ncn(C5CC5)c4cc3F)c(C(N)=O)c2NC)C[C@@H]1C(F)F` [Example 170, 3-[2-(1-Cyclopropyl-6-fluoro-1,3-benzodiazol-5-yl)ethynyl]-1-[(3S,5R)-5-(difluoromethyl)-1-(prop-2-enoyl)pyrrolidin-3-yl]-5-(methylamino)pyrazole-4-carboxamide] was tested. Which IC50 did it give?
**A.** Its IC50 is no more than 100 nM.

**Q.** For `C=CC(=O)N1CC[C@H](n2nc(C#Cc3cc4ncn(C5CC5)c4c(F)c3F)c(C(N)=O)c2NC)C1` [Example 171], which IC50 is on record?
**A.** The IC50 was no more than 100 nM.

**Q.** Which IC50 does the source give for `C=C(F)C(=O)N1CC(n2nc(C#Cc3cc4ncn(C5CC5)c4cc3F)c(C(N)=O)c2NC)C1` [Example 172, 3-((1-Cyclopropyl-6-fluoro-1H-benzo[d]imidazol-5-yl)ethynyl)-1-(1-(2-fluoroacryloyl)azetidin-3-yl)-5-(methylamino)-1H-pyrazole-4-carboxamide] here?
**A.** Its IC50 is no more than 100 nM.

**Q.** For `C=C(F)C(=O)N1CC(n2nc(C#Cc3c(F)cc4c(ncn4C4CC4)c3F)c(C(N)=O)c2NC)C1` [Example 173, 3-((1-Cyclopropyl-4,6-difluoro-1H-benzo[d]imidazol-5-yl)ethynyl)-1-(1-(2-fluoroacryloyl)azetidin-3-yl)-5-(methylamino)-1H-pyrazole-4-carboxamide], which IC50 is on record?
**A.** Its IC50 is no more than 100 nM.

**Q.** For `C=CC(=O)N1CC(n2nc(C#Cc3cc4ncn(C5CC5)c4cc3F)c(C(N)=O)c2NC)C1` [Example 175, 3-[2-(1-cyclopropyl-6-fluoro-1,3-benzodiazol-5-yl)ethynyl]-5-(methylamino)-1-[1-(prop-2-enoyl)azetidin-3-yl]pyrazole-4-carboxamide], which IC50 is on record?
**A.** Its IC50 is no more than 100 nM.

**Q.** How did the IC50 turn out when `C=CC(=O)N1C[C@@H](n2nc(C#Cc3cc4ncn(C5CC5)c4cc3F)c(C(N)=O)c2NC)C[C@@H]1CF` [Example 176, 1-((3S,5R)-1-acryloyl-5-(fluoromethyl)pyrrolidin-3-yl)-3-((1-cyclopropyl-6-fluoro-1H-benzo[d]imidazol-5-yl)ethynyl)-5-(methylamino)-1H-pyrazole-4-carboxamide] was run?
**A.** Its IC50 is no more than 100 nM.

**Q.** For `C=CC(=O)N1C[C@@H](n2nc(C#Cc3c(F)cc4[nH]cnc4c3F)c(C(N)=O)c2NC)C[C@@H]1COC` [Example 177, 1-((3S,5R)-1-acryloyl-5-(methoxymethyl)pyrrolidin-3-yl)-3-((4,6-difluoro-1H-benzo[d]imidazol-5-yl)ethynyl)-5-(methylamino)-1H-pyrazole-4-carboxamide], which IC50 is on record?
**A.** The IC50 was no more than 100 nM.

**Q.** `C=CC(=O)N1C[C@@H](n2nc(C#Cc3ccc4c(c3)ncn4C3CC3)c(C(N)=O)c2NC)C[C@@H]1CF` [Example 178, 1-((3S,5R)-1-Acryloyl-5-(fluoromethyl)pyrrolidin-3-yl)-3-((1-cyclopropyl-1H-benzo[d]imidazol-5-yl)ethynyl)-5-(methylamino)-1H-pyrazole-4-carboxamide] was tested. Which IC50 did it give?
**A.** The IC50 was no more than 100 nM.

**Q.** For `C=CC(=O)N1C[C@@H](n2nc(C#Cc3c(F)cc4c(ncn4C4CC4)c3F)c(C(N)=O)c2NC)C[C@@H]1CF` [Example 179, 1-((3S,5R)-1-Acryloyl-5-(fluoromethyl)pyrrolidin-3-yl)-3-((1-cyclopropyl-4,6-difluoro-1H-benzo[d]imidazol-5-yl)ethynyl)-5-(methylamino)-1H-pyrazole-4-carboxamide], which IC50 is on record?
**A.** The IC50 was no more than 100 nM.

**Q.** Which IC50 does the source give for `C=CC(=O)N1C[C@@H](n2nc(C#Cc3cc4ncn(C5CC5)c4cc3F)c(C(N)=O)c2NC)C[C@H]1CF` [Example 180, 3-[2-(1-Cyclopropyl-6-fluoro-1,3-benzodiazol-5-yl)ethynyl]-1-[(3S,5S)-5-(fluoromethyl)-1-(prop-2-enoyl)pyrrolidin-3-yl]-5-(methylamino)pyrazole-4-carboxamide] here?
**A.** The IC50 was no more than 100 nM.

**Q.** With `C=CC(=O)N1C[C@@H](n2nc(C#Cc3c(F)cc4c(ncn4C4CC4)c3F)c(C(N)=O)c2NC)C[C@H]1CF` [Example 181, 3-[2-(1-Cyclopropyl-4,6-difluoro-1,3-benzodiazol-5-yl)ethynyl]-1-[(3S,5S)-5-(fluoromethyl)-1-(prop-2-enoyl)pyrrolidin-3-yl]-5-(methylamino)pyrazole-4-carboxamide] as the molecule, how does the IC50 read?
**A.** Its IC50 is no more than 100 nM.

**Q.** With `C#CC(=O)N1C[C@@H](n2nc(C#Cc3cc4ncn(C5CC5)c4cc3F)c(C(N)=O)c2NC)C[C@@H]1COC` [Example 182, 3-((1-Cyclopropyl-6-fluoro-1H-benzo[d]imidazol-5-yl)ethynyl)-1-((3S,5R)-5-(methoxymethyl)-1-propioloylpyrrolidin-3-yl)-5-(methylamino)-1H-pyrazole-4-carboxamide] as the molecule, how does the IC50 read?
**A.** The IC50 was no more than 100 nM.

**Q.** How did the IC50 turn out when `CC#CC(=O)N1C[C@@H](n2nc(C#Cc3cc4ncn(C5CC5)c4cc3F)c(C(N)=O)c2NC)C[C@@H]1COC` [Example 183, 1-((3S,5R)-1-(But-2-ynoyl)-5-(methoxymethyl)pyrrolidin-3-yl)-3-((1-cyclopropyl-6-fluoro-1H-benzo[d]imidazol-5-yl)ethynyl)-5-(methylamino)-1H-pyrazole-4-carboxamide] was run?
**A.** Its IC50 is no more than 100 nM.

**Q.** How did the IC50 turn out when `C#CC(=O)N1C[C@@H](n2nc(C#Cc3c(F)cc4c(ncn4C4CC4)c3F)c(C(N)=O)c2NC)C[C@@H]1COC` [Example 184, 3-[2-(1-cyclopropyl-4,6-difluoro-1,3-benzodiazol-5-yl)ethynyl]-1-[(3S,5R)-5-(methoxymethyl)-1-(prop-2-ynoyl)pyrrolidin-3-yl]-5-(methylamino)pyrazole-4-carboxamide] was run?
**A.** The IC50 was no more than 100 nM.

**Q.** For `CC#CC(=O)N1C[C@@H](n2nc(C#Cc3c(F)cc4c(ncn4C4CC4)c3F)c(C(N)=O)c2NC)C[C@@H]1COC` [Example 185, 1-[(3S,5R)-1-(But-2-ynoyl)-5-(methoxymethyl)pyrrolidin-3-yl]-3-[2-(1-cyclopropyl-4,6-difluoro-1,3-benzodiazol-5-yl)ethynyl]-5-(methylamino)pyrazole-4-carboxamide], which IC50 is on record?
**A.** The IC50 was no more than 100 nM.

**Q.** How did the IC50 turn out when `C=CC(=O)N1CC[C@H](n2nc(C#Cc3c(F)cc4c(ncn4C4CC4)c3F)c(C(N)=O)c2NC)C1` [Example 186, 3-[2-(1-Cyclopropyl-4,6-difluoro-1,3-benzodiazol-5-yl)ethynyl]-5-(methylamino)-1-[(3S)-1-(prop-2-enoyl)pyrrolidin-3-yl]pyrazole-4-carboxamide] was run?
**A.** Its IC50 is no more than 100 nM.

**Q.** Which IC50 does the source give for `C=CC(=O)N1C[C@@H](n2nc(C#Cc3c(F)cc4c(ncn4C4CC4)c3F)c(C(N)=O)c2N)C[C@@H]1COC` [Example 189, 5-amino-3-[2-(1-cyclopropyl-4,6-difluoro-1,3-benzodiazol-5-yl)ethynyl]-1-[(3S,5R)-5-(methoxymethyl)-1-(prop-2-enoyl)pyrrolidin-3-yl]pyrazole-4-carboxamide] here?
**A.** Its IC50 is no more than 100 nM.

**Q.** With `C=CC(=O)N1CC[C@H](n2nc(C#Cc3c(F)cc4c(ncn4C4CC4)c3F)c(C(N)=O)c2N)C1` [Example 190, 5-Amino-3-[2-(1-cyclopropyl-4,6-difluoro-1,3-benzodiazol-5-yl)ethynyl]-1-[(3S)-1-(prop-2-enoyl)pyrrolidin-3-yl]pyrazole-4-carboxamide] as the molecule, how does the IC50 read?
**A.** The IC50 was no more than 100 nM.

**Q.** How did the IC50 turn out when `C=CC(=O)N1C[C@@H](n2nc(C#Cc3cc4ncn(CC)c4cc3Cl)c(C(N)=O)c2NC)C[C@@H]1CO` [Example 191, 3-[2-(6-Chloro-1-ethyl-1,3-benzodiazol-5-yl)ethynyl]-1-[(3S,5R)-5-(hydroxymethyl)-1-(prop-2-enoyl)pyrrolidin-3-yl]-5-(methylamino)pyrazole-4-carboxamide] was run?
**A.** The IC50 was no more than 100 nM.

**Q.** `C=CC(=O)N1CC(n2nc(C#Cc3cc4ncn(CC)c4cc3Cl)c(C(N)=O)c2NC)C1` [Example 192, 3-[2-(6-chloro-1-ethyl-1,3-benzodiazol-5-yl)ethynyl]-5-(methylamino)-1-[1-(prop-2-enoyl)azetidin-3-yl]pyrazole-4-carboxamide] was tested. Which IC50 did it give?
**A.** The IC50 was no more than 100 nM.

**Q.** For `C=CC(=O)N1CC(n2nc(C#Cc3c(F)cc4c(ncn4C4CC4)c3F)c(C(N)=O)c2NC)C1` [Example 193, 3-[2-(1-Cyclopropyl-4,6-difluoro-1,3-benzodiazol-5-yl)ethynyl]-5-(methylamino)-1-[1-(prop-2-enoyl)azetidin-3-yl]pyrazole-4-carboxamide], which IC50 is on record?
**A.** Its IC50 is no more than 100 nM.

**Q.** `C=CC(=O)N1C[C@@H](n2nc(C#Cc3cc4ncn(CC)c4cc3Cl)c(C(N)=O)c2N)C[C@@H]1CO` [Example 194, 5-Amino-3-[2-(6-chloro-1-ethyl-1,3-benzodiazol-5-yl)ethynyl]-1-[(3S,5R)-5-(hydroxymethyl)-1-(prop-2-enoyl)pyrrolidin-3-yl]pyrazole-4-carboxamide] was tested. Which IC50 did it give?
**A.** Its IC50 is no more than 100 nM.

**Q.** Which IC50 does the source give for `C=CC(=O)N1C[C@@H](n2nc(C#Cc3cc4ncn(CC)c4cc3Cl)c(C(N)=O)c2N)C[C@@H]1COC` [Example 196, 5-Amino-3-[2-(6-chloro-1-ethyl-1,3-benzodiazol-5-yl)ethynyl]-1-[(3S,5R)-5-(methoxymethyl)-1-(prop-2-enoyl)pyrrolidin-3-yl]pyrazole-4-carboxamide] here?
**A.** Its IC50 is no more than 100 nM.

**Q.** `C=CC(=O)N1C[C@@H](n2nc(C#Cc3cc4ncn(C5CC5)c4cc3Cl)c(C(N)=O)c2N)C[C@@H]1CO` [Example 199, 5-Amino-3-[2-(6-chloro-1-cyclopropyl-1,3-benzodiazol-5-yl)ethynyl]-1-[(3S,5R)-5-(hydroxymethyl)-1-(prop-2-enoyl)pyrrolidin-3-yl]pyrazole-4-carboxamide] was tested. Which IC50 did it give?
**A.** The IC50 was no more than 100 nM.
